{"source": "PubChem BioAssay (NCI)", "experiment_in_all_cases": "NCI-60 cell line screen, 48 h", "key": {"[1]": {"system": "A549 NSCLC"}, "[2]": {"system": "RPMI-8226 leukemia"}, "[3]": {"system": "PC-3 prostate"}, "[4]": {"system": "HL-60(TB) leukemia"}, "[5]": {"system": "SW-620 colon"}, "[6]": {"system": "UACC-62 melanoma"}, "[7]": {"system": "SK-OV-3 ovarian"}, "[8]": {"system": "BT-549 breast"}, "[9]": {"system": "HT29 colon"}, "[10]": {"system": "CAKI-1 renal"}}, "note": "Several values for one entry are separate records, joined by “and”; a condition that tells them apart may be missing. Equal entries are not always repeated.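 Briefly, cells in 96-well plates were exposed to five compound concentrations for 48 h, and endpoints were estimated by linear interpolation. Here, GI50 denotes the concentration required for 50% inhibition of growth. Definition used: TGI = concentration required for complete inhibition of growth.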"}
{"smiles": "CC(C)(C)c1ccc(Oc2ccc(N)cn2)cc1", "values": [{"measurement": "GI50", "setting": "[1]", "value": 9.19, "unit": "µM"}, {"measurement": "TGI", "setting": "[1]", "value": "> 100", "unit": "µM"}, {"measurement": "GI50", "setting": "[2]", "value": 1.99, "unit": "µM"}, {"measurement": "TGI", "setting": "[2]", "value": 41.2, "unit": "µM"}, {"measurement": "GI50", "setting": "[3]", "value": 8.02, "unit": "µM"}, {"measurement": "TGI", "setting": "[3]", "value": "> 100", "unit": "µM"}, {"measurement": "GI50", "setting": "[4]", "value": 0.545, "unit": "µM"}, {"measurement": "TGI", "setting": "[4]", "value": 17.4, "unit": "µM"}, {"measurement": "GI50", "setting": "[5]", "value": "> 100", "unit": "µM"}, {"measurement": "TGI", "setting": "[5]", "value": "> 100", "unit": "µM"}, {"measurement": "GI50", "setting": "[6]", "value": 61.3, "unit": "µM"}, {"measurement": "TGI", "setting": "[6]", "value": "> 100", "unit": "µM"}, {"measurement": "GI50", "setting": "[7]", "value": "> 100", "unit": "µM"}, {"measurement": "TGI", "setting": "[7]", "value": "> 100", "unit": "µM"}, {"measurement": "GI50", "setting": "[8]", "value": 11.3, "unit": "µM"}, {"measurement": "TGI", "setting": "[8]", "value": 99.8, "unit": "µM"}, {"measurement": "GI50", "setting": "[9]", "value": 47.2, "unit": "µM"}, {"measurement": "TGI", "setting": "[9]", "value": "> 100", "unit": "µM"}, {"measurement": "GI50", "setting": "[10]", "value": 21, "unit": "µM"}, {"measurement": "TGI", "setting": "[10]", "value": "> 100", "unit": "µM"}]}
{"smiles": "Cc1ccc(/C=N/Nc2nc(Nc3ccccc3)nc(-n3nc(C)cc3C)n2)cc1", "values": [{"measurement": "GI50", "setting": "[1]", "value": 4.19, "unit": "µM"}, {"measurement": "TGI", "setting": "[1]", "value": 35.7, "unit": "µM"}, {"measurement": "GI50", "setting": "[2]", "value": 3.19, "unit": "µM"}, {"measurement": "TGI", "setting": "[2]", "value": 12.9, "unit": "µM"}, {"measurement": "GI50", "setting": "[3]", "value": 2.67, "unit": "µM"}, {"measurement": "TGI", "setting": "[3]", "value": 23.6, "unit": "µM"}, {"measurement": "GI50", "setting": "[4]", "value": 2.51, "unit": "µM"}, {"measurement": "TGI", "setting": "[4]", "value": 84.8, "unit": "µM"}, {"measurement": "GI50", "setting": "[5]", "value": 5.75, "unit": "µM"}, {"measurement": "TGI", "setting": "[5]", "value": "> 100", "unit": "µM"}, {"measurement": "GI50", "setting": "[6]", "value": 4.44, "unit": "µM"}, {"measurement": "TGI", "setting": "[6]", "value": 24.2, "unit": "µM"}, {"measurement": "GI50", "setting": "[7]", "value": 11.8, "unit": "µM"}, {"measurement": "TGI", "setting": "[7]", "value": "> 100", "unit": "µM"}, {"measurement": "GI50", "setting": "[8]", "value": 4, "unit": "µM"}, {"measurement": "TGI", "setting": "[8]", "value": 34.1, "unit": "µM"}, {"measurement": "GI50", "setting": "[9]", "value": 3.55, "unit": "µM"}, {"measurement": "TGI", "setting": "[9]", "value": "> 100", "unit": "µM"}, {"measurement": "GI50", "setting": "[10]", "value": 2.56, "unit": "µM"}, {"measurement": "TGI", "setting": "[10]", "value": 9.45, "unit": "µM"}]}
{"smiles": "CC1=C2[C@@H](CC1)[C@]1(C)O[C@@](C(C)C)(C[C@H]1OC(=O)CO)[C@H]2OC(=O)C1CC1c1ccccc1", "note": "(stereo not given in full)", "values": [{"measurement": "GI50", "setting": "[1]", "value": 11.9, "unit": "µM"}, {"measurement": "TGI", "setting": "[1]", "value": 25.9, "unit": "µM"}, {"measurement": "GI50", "setting": "[2]", "value": 12.8, "unit": "µM"}, {"measurement": "TGI", "setting": "[2]", "value": 42.6, "unit": "µM"}, {"measurement": "GI50", "setting": "[3]", "value": 7.36, "unit": "µM"}, {"measurement": "TGI", "setting": "[3]", "value": 21.6, "unit": "µM"}, {"measurement": "GI50", "setting": "[4]", "value": 15, "unit": "µM"}, {"measurement": "TGI", "setting": "[4]", "value": 38, "unit": "µM"}, {"measurement": "GI50", "setting": "[5]", "value": 16.4, "unit": "µM"}, {"measurement": "TGI", "setting": "[5]", "value": 32.6, "unit": "µM"}, {"measurement": "GI50", "setting": "[6]", "value": 10.9, "unit": "µM"}, {"measurement": "TGI", "setting": "[6]", "value": 25.6, "unit": "µM"}, {"measurement": "GI50", "setting": "[7]", "value": 16.4, "unit": "µM"}, {"measurement": "TGI", "setting": "[7]", "value": 30.7, "unit": "µM"}, {"measurement": "GI50", "setting": "[8]", "value": 13.6, "unit": "µM"}, {"measurement": "TGI", "setting": "[8]", "value": 28.7, "unit": "µM"}, {"measurement": "GI50", "setting": "[9]", "value": 13.5, "unit": "µM"}, {"measurement": "TGI", "setting": "[9]", "value": 28.3, "unit": "µM"}, {"measurement": "GI50", "setting": "[10]", "value": 11.4, "unit": "µM"}, {"measurement": "TGI", "setting": "[10]", "value": 24, "unit": "µM"}]}
{"smiles": "CNC(=O)c1cc(Oc2ccc(NC(=O)Nc3ccc(Cl)c(C(F)(F)F)c3)c(F)c2)ccn1", "values": [{"measurement": "GI50", "setting": "[1]", "value": "2.39 µM and 2.64 µM"}, {"measurement": "TGI", "setting": "[1]", "value": "> 24.1", "unit": "µM"}, {"measurement": "GI50", "setting": "[2]", "value": "1.71 µM and 1.83 µM"}, {"measurement": "TGI", "setting": "[2]", "value": "4.96 µM and 7.32 µM"}, {"measurement": "GI50", "setting": "[3]", "value": "2.82 µM and 2.7 µM"}, {"measurement": "TGI", "setting": "[3]", "value": "> 64.6", "unit": "µM"}, {"measurement": "GI50", "setting": "[4]", "value": "0.518 µM and 0.539 µM"}, {"measurement": "TGI", "setting": "[4]", "value": "2.68 µM and 4.1 µM"}, {"measurement": "GI50", "setting": "[5]", "value": "2.23 µM and 2.47 µM"}, {"measurement": "TGI", "setting": "[5]", "value": "14.9 µM and > 10 µM"}, {"measurement": "GI50", "setting": "[6]", "value": 0.98, "unit": "µM"}, {"measurement": "TGI", "setting": "[6]", "value": 4.73, "unit": "µM"}, {"measurement": "GI50", "setting": "[7]", "value": "3.2 µM and 2.43 µM"}, {"measurement": "TGI", "setting": "[7]", "value": "12.3 µM and 8.49 µM"}, {"measurement": "GI50", "setting": "[8]", "value": "2.56 µM and 2.67 µM"}, {"measurement": "TGI", "setting": "[8]", "value": "8.64 µM and 9.09 µM"}, {"measurement": "GI50", "setting": "[9]", "value": "1.82 µM and 1.43 µM"}, {"measurement": "TGI", "setting": "[9]", "value": "8.83 µM and > 10 µM"}, {"measurement": "GI50", "setting": "[10]", "value": 2.95, "unit": "µM"}, {"measurement": "TGI", "setting": "[10]", "value": "> 30.4", "unit": "µM"}]}
{"smiles": "CCc1ccc(CCC(=O)Nc2ncc(Cc3ccc(Cl)cc3)s2)o1", "values": [{"measurement": "GI50", "setting": "[1]", "value": 0.496, "unit": "µM"}, {"measurement": "TGI", "setting": "[1]", "value": "> 100", "unit": "µM"}, {"measurement": "GI50", "setting": "[2]", "value": 0.372, "unit": "µM"}, {"measurement": "TGI", "setting": "[2]", "value": "> 100", "unit": "µM"}, {"measurement": "GI50", "setting": "[3]", "value": 0.403, "unit": "µM"}, {"measurement": "TGI", "setting": "[3]", "value": "> 100", "unit": "µM"}, {"measurement": "GI50", "setting": "[4]", "value": 0.289, "unit": "µM"}, {"measurement": "TGI", "setting": "[4]", "value": 1.93, "unit": "µM"}, {"measurement": "GI50", "setting": "[5]", "value": 0.375, "unit": "µM"}, {"measurement": "TGI", "setting": "[5]", "value": "> 100", "unit": "µM"}, {"measurement": "GI50", "setting": "[6]", "value": 0.491, "unit": "µM"}, {"measurement": "TGI", "setting": "[6]", "value": "> 100", "unit": "µM"}, {"measurement": "GI50", "setting": "[7]", "value": 0.449, "unit": "µM"}, {"measurement": "TGI", "setting": "[7]", "value": "> 100", "unit": "µM"}, {"measurement": "GI50", "setting": "[8]", "value": 2.12, "unit": "µM"}, {"measurement": "TGI", "setting": "[8]", "value": "> 100", "unit": "µM"}, {"measurement": "GI50", "setting": "[9]", "value": 0.367, "unit": "µM"}, {"measurement": "TGI", "setting": "[9]", "value": "> 100", "unit": "µM"}, {"measurement": "GI50", "setting": "[10]", "value": 0.451, "unit": "µM"}, {"measurement": "TGI", "setting": "[10]", "value": "> 100", "unit": "µM"}]}
{"smiles": "COc1ccc2c(c1)c(-c1nc(-c3c[nH]c4ccncc34)cs1)cn2C", "values": [{"measurement": "GI50", "setting": "[1]", "value": 1.87, "unit": "µM"}, {"measurement": "TGI", "setting": "[1]", "value": 3.46, "unit": "µM"}, {"measurement": "GI50", "setting": "[2]", "value": 1.83, "unit": "µM"}, {"measurement": "TGI", "setting": "[2]", "value": 3.83, "unit": "µM"}, {"measurement": "GI50", "setting": "[3]", "value": 1.6, "unit": "µM"}, {"measurement": "TGI", "setting": "[3]", "value": 3.06, "unit": "µM"}, {"measurement": "GI50", "setting": "[4]", "value": 1.68, "unit": "µM"}, {"measurement": "TGI", "setting": "[4]", "value": 3.5, "unit": "µM"}, {"measurement": "GI50", "setting": "[5]", "value": 1.75, "unit": "µM"}, {"measurement": "TGI", "setting": "[5]", "value": 3.27, "unit": "µM"}, {"measurement": "GI50", "setting": "[6]", "value": 1.82, "unit": "µM"}, {"measurement": "TGI", "setting": "[6]", "value": 3.35, "unit": "µM"}, {"measurement": "GI50", "setting": "[7]", "value": 1.88, "unit": "µM"}, {"measurement": "TGI", "setting": "[7]", "value": 3.37, "unit": "µM"}, {"measurement": "GI50", "setting": "[8]", "value": 1.81, "unit": "µM"}, {"measurement": "TGI", "setting": "[8]", "value": 3.45, "unit": "µM"}, {"measurement": "GI50", "setting": "[9]", "value": 1.2, "unit": "µM"}, {"measurement": "TGI", "setting": "[9]", "value": 2.62, "unit": "µM"}, {"measurement": "GI50", "setting": "[10]", "value": 1.64, "unit": "µM"}, {"measurement": "TGI", "setting": "[10]", "value": 3.03, "unit": "µM"}]}
